Laboratory results as given in patent US20150218172A1, “Pyrrolo[2,3-D]Pyrimidine Tropomyosin-Related Kinase Inhibitors” (PFIZER LIMITED, priority 2012, published 2015).

Target: T1, TrkA (Homo sapiens, UniProt P04629)
T1 construct: aa 441-796; His; purchased Invitrogen PV3144
Assay: Isolated TRK enzyme assay (HTRF KinEASE-TK kit), PV3144 TrkA enzyme assay
Assay type: biochemical
Conditions: PV3144 TrkA enzyme assay, recombinant His-tagged cytoplasmic domain aa 441-796, 4 nM enzyme, 40 uM ATP; arithmetic mean where more than one reading; read-out: Trka enzyme (IC50)
Description: Isolated TRK Enzyme assays use the HTRF KinEASE-TK kit (Cisbio Cat#62TK0PEJ) with recombinant His-tagged cytoplasmic domains of each TRK receptor sourced from Invitrogen (see table below). This activity-assay measures the phosphorylation of tyrosine residues within a substrate from the HTRF kit which has been validated by Cisbio for a variety of tyrosine kinases including the TRK receptors.
0.5 mM stock solutions of test compounds are prepared and serially diluted in 100% DMSO. A standard curve using the compound of Example 135 disclosed in WO2005/116035 of 150 uM is also prepared on each test plate. High percentage effect (HPE) is defined by 150 uM (using the compound of Example 135 as disclosed in WO2005/116035) and 0% effect (ZPE) is defined by 100% DMSO. Greiner low volume black plates containing 0.2 ul of serially diluted compound, standard and HPE/ZPE are created using the Bravo nanolitre dispenser.
1X enzyme buffer is prepared from 5X Enzymatic Buffer from the Cisbio KinEASE TK kit using MilliQ water. The buffer is then supplemented with 10 mM MgCl and 2 mM DTT (both from Sigma). In the case of TRKB, the buffer is also supplemented with 125 nM Supplement Enzymatic Buffer (SEB) from the Cisbio kit.
2X FAC of enzyme and 2X FAC ATP diluted in 1X complete enzyme buffer is incubated at room temperature for 20 minutes to preactivate the enzyme. Following this preactivation step, 5 ul/well of enzyme+ATP mix is added using a Multidrop Micro to the assay plate, spotted with 0.2 ul 100% DMSO compound. This is left for 20 mins at room temperature before adding 5 ul of 2 uM TK-substrate-Biotin (from the Cisbio kit) diluted in 1X enzyme buffer (1 uM FAC) using the Multidrop Micro. The reaction is incubated at room temperature for the optimized assay reaction time (see table). The reaction is stopped by adding 10 ul/well HTRF Detection Buffer containing 0.25 uM Streptavidin-XL665 (0.125 uM FAC) and 1:200 TK Antibody-Cryptate using a Multidrop.
After the Detection Reagent addition, plates are covered and incubated at room temperature for 60 minutes. HTRF signal is read using an Envision reader, measured as a ratio of emissions at two different wavelengths, 620 nm and 665 nm. […] Test compound data are expressed as percentage inhibition defined by HPE and ZPE values for each plate. Percentage inhibition in the presence of test compound is plotted against compound concentration on a log scale to determine an IC50 from the resultant sigmoid curve.
Below are TrkA IC50 data generated using the PV3144 TrkA enzyme assay. Where more than one reading was taken, the arithmetic mean is presented.

T1 sequence (P04629 441-796): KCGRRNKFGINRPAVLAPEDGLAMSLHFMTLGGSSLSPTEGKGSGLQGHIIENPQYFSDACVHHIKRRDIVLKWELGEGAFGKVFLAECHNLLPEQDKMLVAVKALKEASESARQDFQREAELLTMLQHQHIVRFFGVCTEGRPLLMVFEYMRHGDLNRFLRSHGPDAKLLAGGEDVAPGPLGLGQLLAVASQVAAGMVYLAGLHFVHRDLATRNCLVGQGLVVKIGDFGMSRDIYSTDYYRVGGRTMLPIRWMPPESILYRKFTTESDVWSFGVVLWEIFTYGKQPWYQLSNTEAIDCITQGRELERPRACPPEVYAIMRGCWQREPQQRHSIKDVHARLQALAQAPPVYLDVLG

SMILES | IC50 [nM]
CC(C)(CO)n1cc(C(=O)c2cc(NC(=O)Cc3ccc(C(F)(F)F)cc3)ccn2)c2cnc(N)nc21 [Example 50, N-(2-{[2-amino-7-(1-hydroxy-2-methylpropan-2-yl)-7H-pyrrolo[2,3-d]pyrimidin-5-yl]carbonyl}pyridin-4-yl)-2-[4-(trifluoromethyl)phenyl]acetamide] | 9.29
CC(C)(CO)n1cc(C(=O)c2cc(NC(=O)Cc3ccc(C#N)cc3)ccn2)c2cnc(N)nc21 [Example 51, N-(2-{[2-amino-7-(1-hydroxy-2-methylpropan-2-yl)-7H-pyrrolo[2,3-d]pyrimidin-5-yl]carbonyl}pyridin-4-yl)-2-(4-cyanophenyl)acetamide] | 78.7
CC(C)(CO)n1cc(C(=O)c2cc(NC(=O)Cc3ccc(Cl)cn3)ccn2)c2cnc(N)nc21 [Example 52, N-(2-{[2-amino-7-(1-hydroxy-2-methylpropan-2-yl)-7H-pyrrolo[2,3-d]pyrimidin-5-yl]carbonyl}pyridin-4-yl)-2-(5-chloropyridin-2-yl)acetamide] | 73.1
CC(C)(CO)n1cc(C(=O)c2cc(NC(=O)Cn3cc(C(F)(F)F)nn3)ccn2)c2cnc(N)nc21 [Example 53, N-(2-{[2-amino-7-(1-hydroxy-2-methylpropan-2-yl)-7H-pyrrolo[2,3-d]pyrimidin-5-yl]carbonyl}pyridin-4-yl)-2-[4-(trifluoromethyl)-1H-1,2,3-triazol-1-yl]acetamide] | 216
CC(C)(CO)n1cc(C(=O)c2cc(NC(=O)Cn3cc(C(F)(F)F)nn3)ccn2)c2cncnc21 [Example 54, N-(2-{[7-(1-hydroxy-2-methylpropan-2-yl)-7H-pyrrolo[2,3-d]pyrimidin-5-yl]carbonyl}pyridin-4-yl)-2-[4-(trifluoromethyl)-1H-1,2,3-triazol-1-yl]acetamide] | 46.2
CC(C)(CO)n1cc(C(=O)c2cc(NC(=O)Cc3ccc(C(F)(F)F)cc3)ccn2)c2cncnc21 [Example 55, N-(2-{[7-(1-hydroxy-2-methylpropan-2-yl)-7H-pyrrolo[2,3-d]pyrimidin-5-yl]carbonyl}pyridin-4-yl)-2-[4-(trifluoromethyl)phenyl]acetamide] | 12.9
CC(C)(CO)n1cc(C(=O)c2cc(NC(=O)Cc3cccc(C(F)(F)F)c3)ccn2)c2cncnc21 [Example 56, N-(2-{[7-(1-hydroxy-2-methylpropan-2-yl)-7H-pyrrolo[2,3-d]pyrimidin-5-yl]carbonyl}pyridin-4-yl)-2-[3-(trifluoromethyl)phenyl]acetamide] | 6.56
CC(C)(CO)n1cc(C(=O)c2cc(NC(=O)Cc3ccc(C#N)cc3)ccn2)c2cncnc21 [Example 57, 2-(4-cyanophenyl)-N-(2-{[7-(1-hydroxy-2-methylpropan-2-yl)-7H-pyrrolo[2,3-d]pyrimidin-5-yl]carbonyl}pyridin-4-yl)acetamide] | 66.1
CC(C)(CO)n1cc(C(=O)c2cc(NC(=O)Cc3ccc(Cl)cn3)ccn2)c2cncnc21 [Example 58, 2-(5-chloropyridin-2-yl)-N-(2-{[7-(1-hydroxy-2-methylpropan-2-yl)-7H-pyrrolo[2,3-d]pyrimidin-5-yl]carbonyl}pyridin-4-yl)acetamide] | 11.6
CC(C)(CO)n1cc(C(=O)c2cc(NC(=O)Cn3ccc(C(F)(F)F)n3)ccn2)c2cncnc21 [Example 59, N-(2-{[7-(1-hydroxy-2-methylpropan-2-yl)-7H-pyrrolo[2,3-d]pyrimidin-5-yl]carbonyl}pyridin-4-yl)-2-[3-(trifluoromethyl)-1H-pyrazol-1-yl]acetamide] | 12.3
Cc1cc(C(F)(F)F)nn1CC(=O)Nc1ccnc(C(=O)c2cn(C(C)(C)CO)c3ncncc23)c1 [Example 60, N-(2-{[7-(1-hydroxy-2-methylpropan-2-yl)-7H-pyrrolo[2,3-d]pyrimidin-5-yl]carbonyl}pyridin-4-yl)-2-[5-methyl-3-(trifluoromethyl)-1H-pyrazol-1-yl]acetamide] | 8.3
CC(C)(CO)n1cc(C(=O)c2cc(NC(=O)Cn3ccc(C4CC4)n3)ccn2)c2cncnc21 [Example 61, 2-(3-cyclopropyl-1H-pyrazol-1-yl)-N-(2-{[7-(1-hydroxy-2-methylpropan-2-yl)-7H-pyrrolo[2,3-d]pyrimidin-5-yl]carbonyl}pyridin-4-yl)acetamide] | 25.4
CC(C)n1cc(C(=O)c2ccnc(NC(=O)Cc3ccc(C#N)cn3)c2)c2cncnc21 [Example 62, 2-(5-Cyanopyridin-2-yl)-N-{4-[(7-isopropyl-7H-pyrrolo[2,3-d]pyrimidin-5-yl)carbonyl}pyridin-2-yl]acetamide] | 34.3
CC(C)n1cc(C(=O)c2cc(NC(=O)Cc3ccc(C#N)cn3)ccn2)c2cnc(N)nc21 [Example 63, N-(2-{[2-amino-7-(propan-2-yl)-7H-pyrrolo[2,3-d]pyrimidin-5-yl]carbonyl}pyridin-4-yl)-2-(5-cyanopyridin-2-yl)acetamide] | 136

Now from value to compound:

IC50 [nM] | SMILES
23.4 | CC(C)n1cc(C(=O)c2cc(NC(=O)Cc3ccc(Cl)cc3)ncn2)c2cncnc21 [Example 65, 2-(4-chlorophenyl)-N-(6-{[7-(propan-2-yl)-7H-pyrrolo[2,3-d]pyrimidin-5-yl]carbonyl}pyrimidin-4-yl)acetamide]
4.45 | CC(C)n1cc(C(=O)c2ccnc(NC(=O)Cc3ccc(Cl)c(Cl)c3)c2)c2cncnc21 [Example 66, 2-(3,4-Dichlorophenyl)-N-{4-[(7-isopropyl-7H-pyrrolo[2,3-d]pyrimidin-5-yl)carbonyl]pyridin-2-yl}acetamide]
28.9 | CC(C)n1cc(C(=O)c2ccnc(NC(=O)Cc3ccc(Cl)cc3)c2)c2cncnc21 [Example 67, 2-(4-chlorophenyl)-N-(4-{[7-(propan-2-yl)-7H-pyrrolo[2,3-d]pyrimidin-5-yl]carbonyl}pyridin-2-yl)acetamide]
51 | CC(C)n1cc(C(=O)c2ccnc(NC(=O)Cc3ccc(C#N)cc3)c2)c2cncnc21 [Example 68, 2-(4-cyanophenyl)-N-(4-{[7-(propan-2-yl)-7H-pyrrolo[2,3-d]pyrimidin-5-yl]carbonyl}pyridin-2-yl)acetamide]
5.54 | Cc1cc(C(F)(F)F)nn1CC(=O)Nc1ccnc(C(=O)c2cn(C(C)C)c3ncncc23)c1 [Example 69, 2-[5-methyl-3-(trifluoromethyl)-1H-pyrazol-1-yl]-N-(2-{[7-(propan-2-yl)-7H-pyrrolo[2,3-d]pyrimidin-5-yl]carbonyl}pyridin-4-yl)acetamide]
144 | Cc1ccn(CC(=O)Nc2cc(C(=O)c3cn(C(C)C)c4ncncc34)ccn2)n1 [Example 70, 2-(3-methyl-1H-pyrazol-1-yl)-N-(4-{[7-(propan-2-yl)-7H-pyrrolo[2,3-d]pyrimidin-5-yl]carbonyl}pyridin-2-yl)acetamide]
49.2 | CC(C)n1cc(C(=O)c2ccnc(NC(=O)Cc3ccc(C#N)c(C(F)(F)F)c3)c2)c2cncnc21 [Example 71, 2-[4-cyano-3-(trifluoromethyl)phenyl]-N-(4-{[7-(propan-2-yl)-7H-pyrrolo[2,3-d]pyrimidin-5-yl]carbonyl}pyridin-2-yl)acetamide]
117 | CC(C)n1cc(C(=O)c2ccnc(NC(=O)Cc3ccc(OC4CC4)cc3)c2)c2cncnc21 [Example 72, 2-[4-(cyclopropyloxy)phenyl]-N-(4-{[7-(propan-2-yl)-7H-pyrrolo[2,3-d]pyrimidin-5-yl]carbonyl}pyridin-2-yl)acetamide]
58.2 | CC(C)n1cc(C(=O)c2ccnc(NC(=O)Cc3ccc(F)cn3)c2)c2cncnc21 [Example 73, 2-(5-fluoropyridin-2-yl)-N-(4-{[7-(propan-2-yl)-7H-pyrrolo[2,3-d]pyrimidin-5-yl]carbonyl}pyridin-2-yl)acetamide]
20.9 | CC(C)n1cc(C(=O)c2ccnc(NC(=O)Cc3ccc(Cl)cn3)c2)c2cncnc21 [Example 74, 2-(5-chloropyridin-2-yl)-N-(4-{[7-(propan-2-yl)-7H-pyrrolo[2,3-d]pyrimidin-5-yl]carbonyl}pyridin-2-yl)acetamide]
306 | Cc1cc(C(=O)c2cn(C(C)C)c3ncncc23)cc(NC(=O)Cc2ccccc2)n1 [Example 75, N-(6-methyl-4-{[7-(propan-2-yl)-7H-pyrrolo[2,3-d]pyrimidin-5-yl]carbonyl}pyridin-2-yl)-2-phenylacetamide]
